The source of these data is ChEMBL document CHEMBL4477233, “Discovery of novel TAOK2 inhibitor scaffolds from high-throughput screening” (Bioorg Med Chem Lett, 2016).

Some results are limits rather than exact numbers.

Assay [1] addresses T1, Interleukin-1 receptor-associated kinase 4 (Homo sapiens) (UniProt Q9NWZ3).
T1 sequence (whole entry): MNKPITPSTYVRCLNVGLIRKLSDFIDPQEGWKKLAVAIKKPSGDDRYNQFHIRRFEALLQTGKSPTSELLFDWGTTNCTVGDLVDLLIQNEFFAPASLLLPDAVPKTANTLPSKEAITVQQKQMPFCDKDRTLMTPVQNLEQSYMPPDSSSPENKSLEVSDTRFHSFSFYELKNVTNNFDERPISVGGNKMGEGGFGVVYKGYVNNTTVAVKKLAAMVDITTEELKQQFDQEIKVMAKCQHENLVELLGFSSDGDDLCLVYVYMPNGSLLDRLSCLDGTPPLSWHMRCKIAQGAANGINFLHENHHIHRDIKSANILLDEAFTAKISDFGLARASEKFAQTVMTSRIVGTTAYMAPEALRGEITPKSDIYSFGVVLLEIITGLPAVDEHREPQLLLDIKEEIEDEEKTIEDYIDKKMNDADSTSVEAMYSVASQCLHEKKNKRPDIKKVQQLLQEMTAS
Put plainly: Inhibition of human IRAK4. To be noted: concentration not given here.

The target of assay [2] is Mitogen-activated protein kinase 8 (Homo sapiens) (UniProt P45983). Nature of the assay: Inhibition of human JNK1. The settings on record: concentration not given here.
Sequence of Mitogen-activated protein kinase 8 (Homo sapiens) (P45983 whole entry): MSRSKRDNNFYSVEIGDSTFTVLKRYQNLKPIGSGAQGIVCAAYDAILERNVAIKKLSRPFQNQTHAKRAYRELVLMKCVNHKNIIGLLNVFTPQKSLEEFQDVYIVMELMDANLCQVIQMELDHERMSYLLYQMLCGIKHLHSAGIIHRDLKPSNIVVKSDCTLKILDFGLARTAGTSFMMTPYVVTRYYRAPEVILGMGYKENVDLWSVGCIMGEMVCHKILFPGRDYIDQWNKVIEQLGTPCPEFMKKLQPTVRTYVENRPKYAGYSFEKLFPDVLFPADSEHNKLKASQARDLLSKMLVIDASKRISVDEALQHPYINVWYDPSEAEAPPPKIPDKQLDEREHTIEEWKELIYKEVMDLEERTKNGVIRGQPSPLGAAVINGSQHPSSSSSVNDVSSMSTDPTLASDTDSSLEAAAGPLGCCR

Consider `CCC(=O)Nc1nc(C)c(-c2csc(Nc3cc(OC)ccc3OC)n2)s1`, for which the inhibition in assay [1] and in assay [2] was greater than 50% throughout.
